Test results reported in US20240166770A1, “COMPOSITIONS AND METHODS FOR INHIBITION OF CELL-PENETRATING ANTIBODIES” (Yale University, priority 2019, published 2024).
Where two headings read alike, the source gives them in different places.

T1: ENT2 (Homo sapiens, UniProt Q14542)
T1 sequence (Q14542 1-456): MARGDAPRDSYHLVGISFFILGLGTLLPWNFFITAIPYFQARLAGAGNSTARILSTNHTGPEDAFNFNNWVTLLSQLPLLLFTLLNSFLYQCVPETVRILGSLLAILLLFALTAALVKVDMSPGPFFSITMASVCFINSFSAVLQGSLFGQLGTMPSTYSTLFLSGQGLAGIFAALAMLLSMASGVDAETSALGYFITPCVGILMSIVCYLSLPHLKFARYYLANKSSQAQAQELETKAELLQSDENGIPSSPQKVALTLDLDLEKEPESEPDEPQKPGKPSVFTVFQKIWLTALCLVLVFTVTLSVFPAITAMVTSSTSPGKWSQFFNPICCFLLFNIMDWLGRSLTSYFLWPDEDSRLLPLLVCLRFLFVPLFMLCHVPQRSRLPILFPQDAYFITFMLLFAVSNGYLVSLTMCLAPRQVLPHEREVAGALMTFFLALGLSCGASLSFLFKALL

T2: hENT4 (Homo sapiens, UniProt Q7RTT9)
T2 sequence (Q7RTT9 1-530): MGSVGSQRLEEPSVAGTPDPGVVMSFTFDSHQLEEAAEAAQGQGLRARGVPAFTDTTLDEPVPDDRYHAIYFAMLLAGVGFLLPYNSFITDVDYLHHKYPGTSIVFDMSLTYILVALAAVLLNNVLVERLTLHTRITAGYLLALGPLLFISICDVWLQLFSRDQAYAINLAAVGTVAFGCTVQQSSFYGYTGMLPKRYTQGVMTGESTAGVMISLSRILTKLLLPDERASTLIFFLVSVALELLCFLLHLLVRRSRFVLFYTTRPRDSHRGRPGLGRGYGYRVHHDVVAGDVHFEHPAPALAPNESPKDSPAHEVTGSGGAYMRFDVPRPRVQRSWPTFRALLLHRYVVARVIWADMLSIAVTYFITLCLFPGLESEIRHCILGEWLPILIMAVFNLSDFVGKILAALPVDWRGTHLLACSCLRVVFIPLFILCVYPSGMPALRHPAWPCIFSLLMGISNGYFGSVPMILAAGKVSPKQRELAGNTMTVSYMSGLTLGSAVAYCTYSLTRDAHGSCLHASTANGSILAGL

B1: h3E10 di-scFv: modified, humanized 3E10 lupus autoantibody di-scFv, SEQ ID NO:70, Variant 13 (protein)
scFv: DIQMTQSPSSLSASLGDRATITCRASKTVSTSSYSYMHWYQQKPGQPPKLLIKYASYLESGVPSRFSGSGSGTDFTLTISSLQPEDAATYYCQHSREFPWTFGGGTKVEIKRADAAPGGGGSGGGGSGGGGSEVQLVESGGGLVQPGGSLRLSCAASGFTFSNYGMHWVRQAPGKGLEWVSYISSGSSTIYYADSVKGRFTISRDNAKNSLYLQMNSLRAEDTAVYYCARRGLLLDYWGQGTTVTVSSASTKGPSVFPLAPLESSGSDIQMTQSPSSLSASLGDRATITCRASKTVSTSSYSYMHWYQQKPGQPPKLLIKYASYLESGVPSRFSGSGSGTDFTLTISSLQPEDAATYYCQHSREFPWTFGGGTKVEIKRADAAPGGGGSGGGGSGGGGSEVQLVESGGGLVQPGGSLRLSCAASGFTFSNYGMHWVRQAPGKGLEWVSYISSGSSTIYYADSVKGRFTISRDNAKNSLYLQMNSLRAEDTAVYYCARRGLLLDYWGQGTTVTVSS

What was measured:
ENT2 [1] = biological target: T1, ENT2; details: Ward et al. 2000; SenGupta et al. 2002; cited from earlier work
ENT2 [2] = biological target: T1, ENT2; details: Table 1, different ring systems at the 4- and 8-positions; cited from earlier work
hENT4 [3] = biological target: T2, hENT4; details: Table 1, different ring systems at the 4- and 8-positions; cited from earlier work
hENT4 [4] = biological target: T2, hENT4; details: cited from earlier work
ENT2 [5] = biological target: T1, ENT2; details: ENT2-dependent transduction; cited from earlier work
[6] = test system: TNBC brain metastases (231-BR cells); type: in vivo; details: 20 mg/kg tail vein 3x/week for 4 weeks
Procedure: TNBC brain metastases were generated in mice by intracardiac injection of luciferase-expressing 231-BR cells. Mice were treated with tail vein injection of control (PBS) or h3E10 di-scFv (20 mg/kg) 3×/week for 4 weeks, and brain metastases were tracked by IVIS.

[7] = test system: hCMEC/D3 Transwell filter BBB model; assay: Transwell filter model of the human BBB (hCMEC/D3 and normal human astrocytes); type: in vitro ADME; details: basolateral chamber one hour after addition to apical chamber, western blot

| Molecule | IC50 (ENT2 [1]) [µM] | IC50 (ENT2 [2]) [µM] | IC50 (hENT4 [3]) [µM] | inhibition of hENT4 (in words) (hENT4 [4]) | inhibition of intranuclear transduction of mouse 3E10 Fv (ENT2 [5]) | growth of brain metastases (radiance by IVIS) [6] | median survival ([6]; control 38 days, P<0.02) [days] | transport of h3E10 di-scFv across Transwell filter BBB model [7] |
| --- | --- | --- | --- | --- | --- | --- | --- | --- |
| O=[N+]([O-])c1ccc(CSc2ncnc3c2ncn3[C@@H]2O[C@H](CO)[C@@H](O)[C@H]2O)cc1 [NBMPR] | 2.8 | 1.35 | 2.33 | moderate inhibitors | inhibited |  |  |  |
| B1 |  |  |  |  |  | Suppresses Tumor Growth | 52 | crosses |
